Measured values: paper PMC8291587, “Guanidine Derivatives: How Simple Structural Modification of Histamine H3R Antagonists Has Led to the Discovery of Potent Muscarinic M2R/M4R Antagonists” (ACS Chemical Neuroscience, 2021)
Where two headings read alike, the source gives them in different places.

Tests used:
hM3R = biological target: T1, hM3R (Homo sapiens, UniProt P20309); assay: hM3R radioligand binding ([3H]NMS, CHO cell membranes)
T1 construct: host or cells: CHO cells, stably transfected; crude membranes
T1 sequence (P20309 whole entry): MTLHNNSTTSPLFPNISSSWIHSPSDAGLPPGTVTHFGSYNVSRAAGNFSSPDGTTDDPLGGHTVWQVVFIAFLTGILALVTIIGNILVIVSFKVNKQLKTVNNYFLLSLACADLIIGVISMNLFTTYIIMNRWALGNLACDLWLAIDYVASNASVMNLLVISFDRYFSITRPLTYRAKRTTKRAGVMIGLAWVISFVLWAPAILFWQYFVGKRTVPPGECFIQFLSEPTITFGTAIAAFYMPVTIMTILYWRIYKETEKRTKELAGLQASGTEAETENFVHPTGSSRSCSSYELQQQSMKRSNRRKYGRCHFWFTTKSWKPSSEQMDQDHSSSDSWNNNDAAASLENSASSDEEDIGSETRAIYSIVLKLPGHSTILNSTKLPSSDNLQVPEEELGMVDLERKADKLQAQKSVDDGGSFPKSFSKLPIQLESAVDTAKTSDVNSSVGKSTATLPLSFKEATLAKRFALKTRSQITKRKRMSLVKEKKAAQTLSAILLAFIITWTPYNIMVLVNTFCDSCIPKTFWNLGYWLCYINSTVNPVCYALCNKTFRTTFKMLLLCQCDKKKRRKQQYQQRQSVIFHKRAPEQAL
Protocol: (§1) To clearly explain the obtained outcome, we engaged the radioligand binding experiment. The hM1–hM5 radioligand binding experiments were performed in the membrane fractions of Chinese hamster ovary cells (CHO) stably expressing human variants of muscarinic receptors. N-[^3H]Methylscopolamine was used as the radiolabeled ligand.[39] Three compounds were selected from ex vivo screening on guinea pig ileum. […] This compound is also not completely selective for the remaining muscarinic receptor subtypes with −log Ki values over 6. […] It is also a potent muscarinic M1R antagonist, and the M1R/M2R selectivity ratio is <10. It is worth noting that such nonspecific anticholinergics are often associated with neuropsychiatric and cognitive disturbances and that nonselective muscarinic M1R/M2R antagonists, such as scopolamine, can produce cognitive deficits. Further structural modifications of ADS10227 should be used to increase selectivity toward the M2R, as these may present fewer potential side effects associated with the activation of the phospholipase C signaling pathway.
The culture was derived from CHO cells stably transfected with the genes of human variants of muscarinic receptors. These were purchased from Missouri S&T cDNA Resource Center (Rolla, MO, USA). Cell cultures and crude membranes were prepared as described previously.[45] […]
(§2) All radioligand binding experiments were optimized and carried out according to general guidelines.[39] […] N-Methylscopolamine binding was measured directly in saturation experiments using six concentrations (30–1000 pM) of [^3H]NMS during incubation for 1 h (M2R), 3 h (M1R, M3R, and M4R), or 5 h (M5R). For calculations of the equilibrium dissociation constant (KD), concentrations of free [^3H]NMS were calculated by subtraction of bound radioactivity from total radioactivity in the sample and fitting eq 1 (Experimental Data analysis section). The binding of the tested ligands was determined in competition experiments with 100 pM [^3H]NMS. […] Nonspecific binding was determined in the presence of 1 μM unlabeled atropine. […]

hM2R = biological target: T2, hM2R (Homo sapiens, UniProt P08172); assay: hM2R radioligand binding ([3H]NMS, CHO cell membranes)
T2 construct: host or cells: CHO cells, stably transfected; crude membranes
T2 sequence (P08172 1-466): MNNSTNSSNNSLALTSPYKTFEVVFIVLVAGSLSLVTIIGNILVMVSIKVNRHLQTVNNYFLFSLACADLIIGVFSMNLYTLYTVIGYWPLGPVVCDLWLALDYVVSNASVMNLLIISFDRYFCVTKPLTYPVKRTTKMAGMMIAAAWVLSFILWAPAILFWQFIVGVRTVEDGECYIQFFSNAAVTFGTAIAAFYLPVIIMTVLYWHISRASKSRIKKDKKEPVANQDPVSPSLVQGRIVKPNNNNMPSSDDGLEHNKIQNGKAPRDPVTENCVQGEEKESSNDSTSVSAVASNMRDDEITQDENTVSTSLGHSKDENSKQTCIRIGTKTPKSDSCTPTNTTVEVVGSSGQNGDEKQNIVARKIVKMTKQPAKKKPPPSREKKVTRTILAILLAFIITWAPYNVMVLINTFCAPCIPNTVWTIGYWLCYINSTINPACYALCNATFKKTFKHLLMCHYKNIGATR
Protocol: as §1
The culture was derived from CHO cells stably transfected with the genes of human variants of muscarinic receptors. These were purchased from Missouri S&T cDNA Resource Center (Rolla, MO, USA). Cell cultures and crude membranes were prepared as described previously.[45] The cells were grown to confluence in 75 cm^2 flasks in Dulbecco’s modified Eagle’s medium (DMEM) supplemented with 10% fetal bovine serum, and 2 million cells were subcultured to 100 mm Petri dishes. The medium was supplemented with 5 mM butyrate for the last 24 h of cultivation to increase receptor expression. Cells were detached by mild trypsinization on day 5 after subculture. Detached cells were washed twice in 50 mL of phosphate-buffered saline and 3 min centrifugation at 250g. […]
as §2

[1] = read-out: hM3R -log(Ki) ± sem (converted)

Ki (hM2R; [3H]NMS, CHO membranes, read-out: affinity to hM2R (Ki)) [nM]	SMILES	Ki (hM3R; hM3R -log(Ki) ± sem) [nM]	Ki (hM2R) [nM]	Ki (hM3R; [1]) [nM]	Ki (hM2R; [3H]NMS, CHO membranes, read-out: hM2R -log(Ki) ± sem (converted)) [nM]	M1R/M2R selectivity ratio (hM2R; from hM1R and hM2R binding)
–	N=C(N)N(CCCCN1CCN(CCCCCCCOc2ccccc2)CC1)Cc1ccccc1 [ADS1017]	347	37.2	–	–	–
–	N=C(N)N(CCCCN1CCN(C[C@H]2CC[C@@H](COc3ccccc3)CC2)CC1)Cc1ccccc1 [ADS10227, 1-{4-{4-{[4-(phenoxymethyl)cyclohexyl]methyl}piperazin-1-yl}but-1-yl}-1-(benzyl)guanidine]	–	–	51.3	2.82	< 10
52	[H]/N=C(/N)N(CCCCN1CCN(CC2CCC(COc3ccccc3)CC2)CC1)Cc1ccc(C(F)(F)F)cc1 (stereo not shown) [ADS10239]	–	–	123	–	–
